What was measured:
Assay type in all cases: physicochemical
[1] = Temperature stability at 25° C.; details: for Content ALA: 25° C.
Protocol: Alpha lipic acid/cyclodextrin complexes were stored in a closed polypropylene container at 25° C.

[2] = Temperature stability at 100° C.
[3] = Differential Scanning Calorimetry analysis for uncomplexed alpha-lipoic acid; details: DSC
Protocol: Cyclodextrin complexes (3-6 mg sample size) were analyzed using Differential Scanning Calorimeter (DSC). […] This peak, if present, was compared to a peak at this temperature of pure alpha-lipoic acid to calculate percentage of uncomplexed alpha-lipoic acid in the complex. […] The peak around 60° C. decreases with increasing degree of complexation.

[4] = Temperature stability at 40° C.
[5] = closed polypropylene container, 0 days of storage, initial content set to 100%

For O=C(O)CCCCC1CCSS1 (stereo not drawn) [Pure ALA, Alpha-lipoic acid], which “stability at room temperature” value ([1]; 25° C. storage) is on record?
The value was “stable at room temperature”.

And the “Content ALA” value ([1]; 39 days of storage)?
Its value is 100%.

And the “Content ALA” value ([1]; 67 days of storage)?
The value was 100%.

And the “Content ALA” value ([1]; 107 days of storage)?
Its value is 100%.

And the “Content ALA” value [1, 5]?
The value was 100%.

And the “Content ALA” value ([2]; 3 days of storage)?
The value was 38%.

And the “Content ALA” value ([2]; 11 days of storage)?
The value was 13%.

And the “Content ALA” value ([2]; 28 days of storage)?
Its value is 4%.

And the “Content ALA” value ([2]; 36 days of storage)?
Its value is 0%.

And the “Content ALA” value ([2]; closed glass containers, 0 days of storage, initial content set to 100%)?
The value was 100%.

What about the “Non Complexed ALA” value ([3]; melting peak around 60° C. compared to pure ALA) of the same compound?
Its value is 100%.

And the “Complexed ALA” value ([3]; complexed ALA in product)?
Its value is 0.0%.

And the “Content ALA” value ([4]; 8 days of storage)?
Its value is 99%.

What about the “Content ALA” value ([4]; 39 days of storage) of the same compound?
Its value is 48*) %.

And the “Content ALA” value ([4]; 81 days of storage)?
Its value is 41*) %.

And the “Content ALA” value [4, 5]?
Its value is 100 ^ %.

Reference: patent US8481716B2 (Wacker Chemie AG, priority 2004, dated 2013)
